Holding throughout (assay type): cell-based, human
Test [1] has as its system lung carcinoma cells (A549). The experiment in a line: intracellular Ca^2+, Fluo-4, real time confocal microscopy. The settings on record: for effect of channel blocker on first, EGTA insensitive Ca^2+ peak in response to HAMLET: 30 minutes pretreatment. The protocol:
To examine if HAMLET modulates ion channel activity in tumor cells, we first quantified changes in intracellular Ca^2+ and K^+. Lung carcinoma cells were first preloaded with the Fluo-4 Ca^2+ fluorophore Fluo-, exposed to HAMLET (35 μM) and examined by real time confocal microscopy for changes in fluorescence intensity (FIG. 1A). The Ca^2+ ionophore A23187, which acts as a Ca^2+ shuttle across cell membranes, was used as a positive control (Abbott et al., 1979, Antimicrobial Agents and Chemotherapy 16, 808-812).
To distinguish Ca^2+ mobilization from intracellular stores from the influx of extracellular Ca^2+, EGTA was then added to the cell medium. […] K^+ fluxes across tumor cell membranes were subsequently quantified under the same experimental conditions, using the fluorophore FLUXOR™, which fluoresces after thallium has entered cells through K^+ channels.
To further characterize ion channel activation by HAMLET, carcinoma cells were pretreated with defined channel blockers. Amiloride is a sodium channel inhibitor with effects on mechanosensitive channels, barium chloride (BaCl2) is a general K^+ channel inhibitor, gadolinium chloride (GdCl3) inhibits mechanosensitive channels, Ruthenium red is a general Ca^2+ inhibitor and tetrandrine inhibits large conductance, Ca^2+ activated K^+ channels. The carcinoma cells were preincubated with Fluo-4 as described above, pretreated with each of the channel inhibitors for 30 minutes, exposed to HAMLET (35 μM) and examined by real time confocal imaging. Furthermore, cells treated with EGTA were compared to cells with intact extracellular Ca^2+ levels, to distinguish the early peak from the subsequent influx of Ca^2+ (FIG. 1B, Table in FIG. 8).

For test [2], the system named is A549 lung carcinoma cells. Nature of the test: cell death assay (trypan blue exclusion, ATP levels). The settings on record: for effect of channel inhibitor on HAMLET-induced cell death: 30 minutes pretreatment, HAMLET three hours; for tumoricidal effect (trypan blue exclusion, ATP): Example 2, 3 hours, molar concentrations based on stoichiometry in HAMLET, dose response. On the procedure:
Cells were detached from cell culture flasks with versen (0.2 g EDTA in 200 ml H2O and 800 ml PBS), washed with PBS and resuspended in serum-free RPMI-1640. HAMLET dissolved in PBS was incubated with cells (0.5×10^6/ml for A549, A498 and HeLa cells; 1×10^6/ml for Jurkat) at 37° C. FCS was added after 1 hour. Cell death was quantified by trypan blue exclusion (Chroma Gesellschaft Schmid & Co) or by measuring ATP levels (ATPlite Kit, PerkinElmer, Infinite 200, Tecan). Light images were captured using the HOLOMONITOR™ M2 digital holographic microscope (Phase Holographic Imaging AB, Lund, Sweden).
For studies with inhibitors, cells were pretreated for 30 minutes. Inhibitors used were Gadolinium chloride (GdCl3, 100 μM), Barium chloride (BaCl2, 1 mM), Ruthenium red (30 μM), tetrandrine (10 μM) and amiloride (1 mM), all from Sigma Aldrich. For p38 inhibition, SB202190 (20 μM, Sigma Aldrich) or BIRB796 (10 μM, Axon Medchem) dissolved in DMSO was used. The wells were washed twice with PBS and new medium with inhibitor was added. For RNA interference, FlexiTube siRNA Premixes against MAPK11 (SI00606053), MAPK14 (SI00300769) and All Star Negative Control siRNA (SI03650318) from Qiagen was used. A549 forward was transfected using 25 nM final siRNA concentration in 24-well plate. After 48 hours, knockdown was examined by Western blot (anti-p38, 1:1000, Cell Signaling) and RT-PCR (MAPK14, QT00079345, QIAGEN).
To examine if functional ion channels are important for the tumoricidal activity of HAMLET, A549 lung carcinoma cells in suspension were pretreated with the channel inhibitors for 30 minutes and exposed to increasing concentrations of HAMLET for three hours.
A549 cells were seeded to a density of 0.8-1.0×10^6 cells/well in RPMI without FCS. Different volumes of HAMLET/oleate and oleic acid solutions were added. The cells were incubated for 1 hour at 37° C. 5% CO2 for 1 hour before 50 μl of FCS (5% final concentration) were added to the wells. The cells were then further incubated for additional 2 hours before the viability were determined by trypan blue exclusion and ATP measurements.

Test [3] deals with p38, HSP27, ERK1/2 in kidney and lung carcinoma cells. Nature of the test: MAPK phosphorylation (phospho-MAPK antibody arrays, Western blot). The note with it: for effect of ion channel inhibitor on suppression of p-ERK1/2 phosphorylation by HAMLET / effect of ion channel inhibitor on HAMLET-induced p38 phosphorylation: lung carcinoma cells; for effect of ion channel inhibitor on HAMLET-induced p38 phosphorylation: 30 minutes pretreatment, HAMLET 21 and 35 μM, 1 hour; for phosphorylation of p38: Western blot. From the text: Equal volumes of lysates were separated by SDS-PAGE on 4-12% Bis-Tris gels (Invitrogen) and blotted onto PVDF membranes. For other Western blots, 200,000 cells were allowed to adhere overnight in a 6-well plate. After HAMLET treatment the cells were washed with PBS and lysed in M-PER lysis buffer (Pierce) containing Complete protease inhibitor cocktail and PhosSTOP phosphatase inhibitor cocktail (both from Roche). The detached cells were collected by centrifugation. The lysates were cleared by centrifugation and protein concentrations were measured using the DC Protein Assay (Bio-Rad Laboratories, Hercules, Calif.). Equal amounts of protein were separated by SDS-PAGE on 4-12% Bis-Tris gels (Invitrogen) and blotted onto PVDF membranes (GE Healthcare). Membranes were saturated with BSA (GAPDH) or nonfat dry milk (phospho-p38, p38, phospho-ERK1/2, ERK1/2) and incubated with anti-p38, anti-phospho-p38, anti-ERK1/2, anti-phospho-(Thr202/Tyr204)-p44/42 (all 1:500-1000, Cell Signaling Technology), anti-ATF6 (1:1000, IMG-273, Imgenex), anti-phospho-eIF2α (Ser51), (1:500, Cell Signaling Technology) or anti-GAPDH (1:3000-5000, Novus Biologicals) antibodies followed by horseradish peroxidase-conjugated anti-rabbit (1:1000, DakoCytomation, Glostrup, Denmark) or anti-mouse (1:40000-50000, Novus Biologicals) antibodies for staining. Bound antibodies were detected with ECL Plus Western Blotting Reagent (GE Healthcare, Little Chalfont, UK) and GelDoc equipment (Bio-Rad Laboratories, Hercules, Calif.). If required, membranes were stripped with Restore Western Blot Stripping Buffer (Pierce, Rockford, Ill.), blocked and reprobed with new antibodies. MAP kinase phosphorylation was analyzed on a Human Phospho-MAPK array (Proteome Profiler Array, R&D Systems) as per the manufacturer's instruction. Band and spot intensities were quantified using ImageJ (Abramoff et al., July 2004, Biophotonics International). Cytokine quantification (IL6, IL8, TNFα) was performed on an […] 1000 immunoassay system (Siemens Diagnostics).
P38 MAPKs are activated by dual phosphorylation on conserved threonine and tyrosine residues by MKK3/6 and when phosphorylated, a wide variety of effector proteins, including MAPKAPK2 kinases, HSP27 chaperones and ATF2 and CHOP transcription factors become active (Cuenda et al., 2007, Biochimica et Biophysica Acta 1773: 1358-1375).
On the technique in general: Immunoblotting shows a protein as a band on a membrane.

“Also recorded” adds a separate entry of the source.

With `NC(N)=NC(=O)c1nc(Cl)c(N)nc1N` [amiloride, 3,5-diamino-6-chloro-N-(diaminomethylene)pyrazine-2-carboxamide], the “effect of channel blocker on first, EGTA insensitive Ca^2+ peak in response to HAMLET” value in test [1] (HAMLET 35 μM) is recorded as “inhibited”. Further, the “effect of channel inhibitor on HAMLET-induced cell death” value in test [2] is “markedly reduced cell death”. In test [3], the “effect of ion channel inhibitor on suppression of p-ERK1/2 phosphorylation by HAMLET” value is given as “reversed” and the “effect of ion channel inhibitor on HAMLET-induced p38 phosphorylation” value is on record as “inhibited”.
On to `[Ba+2].[Cl-].[Cl-]` [BaCl2, barium chloride], for which the “effect of channel blocker on first, EGTA insensitive Ca^2+ peak in response to HAMLET” value in test [1] (HAMLET 35 μM) is “inhibited”. Further, the “effect of channel inhibitor on HAMLET-induced cell death” value in test [2] is on record as “markedly reduced cell death”. In addition, in test [3], the “effect of ion channel inhibitor on suppression of p-ERK1/2 phosphorylation by HAMLET” value was “reversed” and the “effect of ion channel inhibitor on HAMLET-induced p38 phosphorylation” value was “inhibited”.
As to `CCCCCCCC/C=C\CCCCCCCC(=O)[O-].[Na+]` [oleate, sodium oleate], the “tumoricidal effect (trypan blue exclusion, ATP)” value in test [2] was “tumoricidal; also recorded: stronger than that of oleic acid”. The “concentration at which tumor cells were killed, relative to concentration in HAMLET” value in test [2] (Example 2, dose response) was “three to five times higher than the concentration in HAMLET”. Besides, the “tumoricidal effect at concentrations corresponding to 15× that of HAMLET (35 μM)” value in test [2] (FIG. 7F, cell line not stated) is “not tumoricidal”. The “phosphorylation of p38” value in test [3] is reported as “phosphorylation of p38”.

B1: HAMLET (protein, UniProt P00709 20-142, looked up)
Alpha-lactalbumin: KQFTKCELSQLLKDIDGYGGIALPELICTMFHTSGYDTQAIVENNESTEYGLFQISNKLWCKSSQVPQSRNICDISCDKFLDDDITDDIMCAKKILDIKGIDYWLAHKALCTEKLEQWLCEKL
modifications: oleic acid complex
With B1, the “cells involved in Ca^2+ response” value in test [1] is reported as “about 50%”. Besides, in test [1] (HAMLET 35 μM), the “increase in intracellular Ca^2+ levels relative to ionophore” value is 31 % of the ionophore; the “intracellular Ca^2+ response” value is listed as “rapid, step-wise increase in intracellular Ca^2+”; the “second Ca^2+ peak” value was “about 100 seconds”; the “start of increase in intracellular Ca^2+” value is reported as “about 30 seconds”. Further, the “tumoricidal effect (trypan blue exclusion, ATP)” value in test [2] was “kills tumor cells more efficiently than protein free oleate or oleic acid”. Moreover, the “lethal response (trypan blue exclusion, ATP levels)” value in test [2] (increasing concentrations, three hours, no inhibitors) is “rapid, dose-dependent lethal response”. The ERK1/2 phosphorylation result in test [3] (30 minutes) is listed as “loss of ERK1/2 phosphorylation”. The “p38α and HSP27 phosphorylation” value in test [3] (30 minutes, phospho-MAPK antibody arrays) is “phosphorylating p38α and HSP27”. Moreover, the “phosphorylation of p38” value in test [3] was “dose- and time-dependent”.
